The results in this text go back to US20240009234A1, “SYNTHETIC OLIGOMERIZATION SYSTEMS FOR CELL ENGINEERING AND THERAPY” (The Board of Trustees of the Leland Stanford Junior …, priority 2020, published 2024).

What all share (details): 8-24 hr
For assay [1], the system named is FKBP-TLR5/FRB-TLR5 model receptor system. In words: NFκβ activity of FKBP-TLR5/FRB-TLR5 heterodimerization system in Jurkat-NFκβ-GFP reporter cells. Type of assay: cell-based, human. How it is done: (§1) In each of the following examples, standard molecular cloning techniques were performed to assemble nucleic acid sequences encoding components of chimeric transmembrane receptor polypeptides onto plasmid backbones. Plasmids were transfected into HEK293T cells to create lentivirus. Lentivirus was transduced into all cell lines to create receptor engineered cells. Presence of the receptor was determined by a fluorescent reporter. Receptor engineered Jurkat cells or Jurkat-NFκβ-GFP and/or Jurkat-NFAT-GFP reporter cells were treated with activator for 8-24 hr. Receptor activity was measured by antibody staining or GFP expression via flow cytometry.
The receptor was further modified to activate upon heterodimerization (A/B system) by dimerizing two different receptor constructs. FKBP heterodimerizes with FKBP-rapamycin-binding (FRB, protein fragment of human mTOR) with the addition of AP21967 (protein-protein interaction inducing macrocyclic small molecule), and an FKBP-TLR5/FRB-TLR5 model receptor system was engineered and activated with AP21967.

Assay [2] relates to nanobody-fused chimeric transmembrane receptor polypeptide (Nb-TLR5). Nature of the assay: NFκβ activity of Nb-TLR5 receptor-engineered Jurkat-NFκβ-GFP reporter cells. The assay is classed as cell-based. How it is done:
as §1
The receptor ECD was also expanded beyond endogenous proteins to engineered nanobodies that bind to small molecules. For example, FIG. 8 presents results for a nanobody-fused chimeric transmembrane receptor polypeptide (Nb-TLR5) engineered and activated by treatment with the asymmetric monomeric small molecule, caffeine. The graph of FIG. 8 plots NFκβ activity for receptor-engineered Jurkat-NFκβ-GFP reporter cells treated with or without caffeine activator for 8-24 hr.

Assay [3] concerns truncated FKBP-TLR5 receptors. In words: NFκβ activity of Jurkat-NFκβ-GFP reporter cells with truncated FKBP-TLR5 receptor constructs. The assay is classed as cell-based, human. How it is done:
as §1
To determine where to truncate the TLR5 ECD such that the binding domain could be redirected to expand the soluble factor repertoire, the ECD was also methodically truncated at specific locations prior to fusing to FKBP. […] The graph of FIG. 3 plots the Nκβ activity for Jurkat-NFKκβ-GFP reporter cells engineered with or without truncated receptor constructs and treated with AP20187 activator for 8-24 hr. The graph of FIG. 4 plots the NFκβ activity for Jurkat-NFκβ-GFP reporter cells engineered with or without truncated receptor constructs and treated with Flagellin activator for 8-24 hr. […]

Chain of truncated FKBP-TLR5 receptors (P62942 2-108 F37V limits assumed): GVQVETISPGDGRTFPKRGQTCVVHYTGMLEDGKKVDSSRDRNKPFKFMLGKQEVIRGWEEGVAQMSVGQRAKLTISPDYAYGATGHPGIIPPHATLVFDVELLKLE

For `CO[C@H]1[C@@H](O)[C@H](C)C[C@H](C)/C=C/C=C/C=C(\C)[C@@H](c2c[nH]c3c(C)cccc23)C[C@@H]2CC[C@@H](C)[C@@](O)(O2)C(=O)C(=O)N2CCCC[C@H]2C(=O)O[C@H]([C@H](C)C[C@@H]2CC[C@@H](O)[C@H](OC)C2)C[C@H](O)[C@H](C)/C=C(\C)[C@H]1O` [AP21967], the “NFκβ activity (FIG. 7)” value in assay [1] is “intramembrane signal pathway activation”. With `Cn1c(=O)c2c(ncn2C)n(C)c1=O` [caffeine], the “NFκβ activity (FIG. 8)” value in assay [2] is listed as “activated”.

On to flagellin, for which the “receptor activation, NFκβ activity (FIGS. 3-5)” value in assay [3] is listed as “not”.
